Converted amounts (≈) assume the structure as drawn. Counter-ions that a name gives are not always drawn. Like-named read-outs stand apart in the source and are kept apart here.
Assays:
[1] = tested on: HeLa cells; assay: colony inhibition test, HeLa cells, 24 hours treatment; format: cell-based; conditions: for IC50: Homo sapiens, read-out: ID50 HeLa
Protocol: (§1) The in vitro antitumor activity was evaluated by cytotoxicity studies carried out on murine L1210 leukemia cells, L-PAM resistance leukemia cells and P388 leukemia cells, as well as on HeLa cells. Cells were derived from in vivo tumors and established in cell culture. Cells were used until the tenth passage. Cytotoxicity was determined by counting surviving cells after 4 hours treatment and 48 hours growth in drug-free medium. For HeLa cells the colony inhibition test according to Cancer Chemother. Pharmacol. 1:249-254, 1978, was used. The percentage of cell growth in the treated cultures was compared with that of controls. ID50 values (doses inhibiting 50% of the cellular growth in respect to controls) were calculated on dose-response curves.
^3) Colony inhibition test carried out after 24 hours treatment.

[2] = tested on: P388 leukemia cells; assay: in vitro cytotoxicity, P388 leukemia cells, 48 hours treatment; format: cell-based, murine; conditions: for IC50: Mus musculus, read-out: ID50 P388
Protocol: as §1
^2) Cytotoxicity evaluated after 48 hours treatment;

[3] = tested on: L1210/LPAM; assay: in vitro cytotoxicity, L-PAM resistance leukemia cells (L1210/LPAM), 4 hours treatment; format: cell-based, murine; conditions: for IC50: Mus musculus, L1210/LPAM, read-out: ID50 L1210/LPAM
Protocol: as §1
(§2) ^1) Cytotoxicity evaluated after 4 hours treatment;

[4] = tested on: L1210 leukemia cells; assay: in vitro cytotoxicity, L1210 leukemia cells, 4 hours treatment; format: cell-based; conditions: murine L1210 leukemia cells, cytotoxicity evaluated after 4 hours treatment
Protocol: as §1, §2

[5] = tested on: DNA-AT sequences; conditions: reported in literature; cited from earlier work
[6] = HeLa cells, colony inhibition test carried out after 24 hours treatment
[7] = P388 leukemia cells, cytotoxicity evaluated after 48 hours treatment
[8] = L-PAM resistance leukemia cells, cytotoxicity evaluated after 4 hours treatment

Cn1cc(NC(=O)c2cc(NC(=O)c3cc(NC(=O)c4ccc(N(CCCl)CCCl)cc4)cn3C)cn2C)cc1C(=O)NCCC(=N)N [FCE 24517, β-[1-methyl-4-[1-methyl-4-[1-methyl-4-[4-N,N-bis(2-chloro-ethyl)aminobenzene-1-carboxamido]pyrrole-2-carboxamido]pyrrole-2-carboxamido]pyrrole-2-carboxamido]propionamidine hydrochloride]
IC50 ([1]; HeLa, 24 h): 0.014 µg/mL | IC50 ([2]; P388, 48 h): 0.21 µg/mL | IC50 ([3]; 4 h): 0.43 µg/mL

Cn1cc(NC(=O)c2cc(NC(=O)c3cc(NC(=O)c4cc(N(CCCl)CCCl)cs4)cn3C)cn2C)cc1C(=O)NCCC(=N)N [FCE 24690, β-[1-methyl-4-[1-methyl-4-[1-methyl-4-[4-N,N-bis(2-chloro-ethyl)aminothiophen-2-carboxamido]pyrrole-2-carboxamido]pyrrole-2-carboxamido]pyrrole-2-carboxamido]propionamidine hydrochloride]
ID50 HeLa [1, 6]: 0.037 µg/mL | ID50 P388 [2, 7]: 0.22 µg/mL | ID50 L1210 [4]: 1.365 µg/mL | ID50 L1210/LPAM [3, 8]: 0.985 µg/mL

Cn1cc(NC(=O)c2cc(NC(=O)c3cc(NC=O)cn3C)cn2C)cc1C(=O)NCCC(=N)N [distamycin A, reference compound]
IC50 [1, 6]: 3.9 µg/mL (≈ 8.1 µM) | IC50 [2, 7]: 25 µg/mL (≈ 51.9 µM) | IC50 ([4]; Mus musculus, read-out: ID50 L1210): 198 µg/mL (≈ 411 µM) | IC50 [3, 8]: 136 µg/mL (≈ 282 µM) | interaction with DNA-AT sequences [5]: interact reversibly and selectively with DNA-AT sequences interfering with both replication and trascription
